Results published in US20260159512A1, “BCAT2 INHIBITORS” (AGIOS PHARMACEUTICALS, INC., priority 2021, published 2026).
pIC50: −log10 of the molar value.

Columns and labels:
[1] = target: T1, BCAT2 (Homo sapiens, UniProt O15382); assay: BCAT2 in vitro enzyme inhibition assay (resazurin/diaphorase-coupled fluorescence); format: biochemical; details: average where tested multiple times
T1 sequence (O15382 28-392): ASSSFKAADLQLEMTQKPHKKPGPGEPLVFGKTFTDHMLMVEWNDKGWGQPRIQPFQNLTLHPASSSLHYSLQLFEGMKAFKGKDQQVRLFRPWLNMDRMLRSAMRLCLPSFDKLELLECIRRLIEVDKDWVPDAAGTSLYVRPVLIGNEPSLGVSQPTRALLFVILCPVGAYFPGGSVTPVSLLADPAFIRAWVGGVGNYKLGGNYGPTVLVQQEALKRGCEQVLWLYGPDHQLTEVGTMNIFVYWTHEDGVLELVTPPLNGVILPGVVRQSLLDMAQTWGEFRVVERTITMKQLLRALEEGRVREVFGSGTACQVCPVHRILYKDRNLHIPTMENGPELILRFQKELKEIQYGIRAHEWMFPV
Summary of the method: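 Coupled fluorescence readout: glutamate formed from L-leucine/α-ketoglutarate transamination drives GDH/NAD/diaphorase reduction of resazurin (Ex 540/Em 590). Human BCAT2 was first exposed 1 h at room temperature to compound, top final 100 μM in 3-fold, 10-point series; substrate reaction ran 1 h before SDS quench, in technical duplicate with DMSO max and enzyme-free min controls.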

[2] = target: T2, hBCAT1 (Homo sapiens, UniProt P54687); assay: BCAT1 in vitro enzyme inhibition assay (resazurin/diaphorase-coupled fluorescence); format: biochemical; details: average where tested multiple times
T2 sequence (P54687 1-386): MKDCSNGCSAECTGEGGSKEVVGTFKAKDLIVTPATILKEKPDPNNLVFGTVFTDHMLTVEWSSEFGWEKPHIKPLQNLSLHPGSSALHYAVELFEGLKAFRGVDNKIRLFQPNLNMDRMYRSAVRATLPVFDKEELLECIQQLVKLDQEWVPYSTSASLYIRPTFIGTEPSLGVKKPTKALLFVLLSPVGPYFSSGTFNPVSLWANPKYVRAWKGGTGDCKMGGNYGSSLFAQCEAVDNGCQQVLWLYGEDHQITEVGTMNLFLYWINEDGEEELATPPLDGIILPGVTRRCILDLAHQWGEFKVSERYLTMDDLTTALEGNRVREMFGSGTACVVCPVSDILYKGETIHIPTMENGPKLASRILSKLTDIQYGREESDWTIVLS
Procedure: BCAT1 In Vitro Enzyme Inhibition Assay
Meanwhile the Substrate Mix was prepared.
Test Compound Preparation:
Test compounds were prepared at 50× final concentration in DMSO, 1 to 3 dilutions were made for 10 points. The compounds were added to the assay as a 1 to 50 dilution (1 μL in 50 μL) to yield a top assay final concentration of 100 μM, decreasing 3-fold for 10 points. […] All tests were performed in technical duplicate.
Where a compound was tested multiple times, the average value of the tests is reported.

| pIC50 [1] | pIC50 [2] | SMILES |
| --- | --- | --- |
| 6.30 to 7.00 | < 5.30 | O=C(NC1CCC(n2c(-c3ccccn3)nc3cnc(-n4nccn4)cc32)C1)c1ccc(Br)s1 (stereo not shown) [Example 93, 5-bromo-N-(3-(2-(pyridin-2-yl)-6-(2H-1,2,3-triazol-2-yl)-1H-imidazo[4,5-c]pyridin-1-yl)cyclopentyl)thiophene-2-carboxamide] |
| < 6.00 | < 5.30 | O=C(NC1CCC(n2c(-c3ccccn3)nc3cnc(-n4ccnn4)cc32)C1)c1ccc(Br)s1 (stereo not shown) [Example 94, 5-bromo-N-(3-(2-(pyridin-2-yl)-6-(1H-1,2,3-triazol-1-yl)-1H-imidazo[4,5-c]pyridin-1-yl)cyclopentyl)thiophene-2-carboxamide] |
| 6.00 to 6.30 | < 5.30 | O=C(N[C@H]1CCC[C@@H](n2c(-c3ccccn3)nc3cc(-n4cncn4)ncc32)C1)c1ccc(Br)s1 [Example 150, 5-bromo-N-((1S,3R)-3-(2-(pyridin-2-yl)-6-(1H-1,2,4-triazol-1-yl)-3H-imidazo[4,5-c]pyridin-3-yl)cyclohexyl)thiophene-2-carboxamide] |
| 6.00 to 6.30 | < 5.30 | O=C(N[C@H]1CCC[C@@H](n2c(-c3ccccn3)nc3cc(-c4cnco4)ncc32)C1)c1ccc(Br)s1 [Example 154, 5-bromo-N-((1S,3R)-3-(6-(oxazol-5-yl)-2-(pyridin-2-yl)-3H-imidazo[4,5-c]pyridin-3-yl)cyclohexyl)thiophene-2-carboxamide] |
| ≥ 7.00 | 5.30 to 6.00 | O=C(NC1CCCC(n2c(-c3ccccn3)nc3cc(-c4ncon4)ncc32)C1)c1ccc(Br)s1 (stereo not shown) [Example 155, N-(3-(6-(1,2,4-oxadiazol-3-yl)-2-(pyridin-2-yl)-3H-imidazo[4,5-c]pyridin-3-yl)cyclohexyl)-5-bromothiophene-2-carboxamide] |
| ≥ 7.00 | 5.30 to 6.00 | O=C(NC1CCCC(n2c(-c3ccccn3)nc3cc(-c4nnco4)ncc32)C1)c1ccc(Br)s1 (stereo not shown) [Example 157, N-(3-(6-(1,3,4-oxadiazol-2-yl)-2-(pyridin-2-yl)-3H-imidazo[4,5-c]pyridin-3-yl)cyclohexyl)-5-bromothiophene-2-carboxamide] |
| 6.30 to 7.00 | 5.30 to 6.00 | C[C@@H]1CCCN1c1cc2c(cn1)nc(-c1ccccc1F)n2[C@@H]1CCC[C@H](NC(=O)c2ncc(Cl)s2)C1 [Example 195, 5-chloro-N-((1S,3R)-3-(2-(2-fluorophenyl)-6-((R)-2-methylpyrrolidin-1-yl)-1H-imidazo[4,5-c]pyridin-1-yl)cyclohexyl)thiazole-2-carboxamide] |
| 6.30 to 7.00 | < 5.30 | CC(=O)N1CC(NC(=O)c2ccc(Br)s2)CC(n2c(-c3ccccn3)nc3ccc(C#N)cc32)C1 (stereo not shown) [Example 289, N-(1-acetyl-5-(6-cyano-2-(pyridin-2-yl)-1H-benzo[d]imidazol-1-yl)piperidin-3-yl)-5-bromothiophene-2-carboxamide] |
| ≥ 7.00 | 5.30 to 6.00 | C#Cc1ccc(C(=O)NC2CC(n3c(-c4ccccc4F)nc4cc(C(=O)NC)c(OC)cc43)CN(C)C2)s1 (stereo not shown) [Example 292, 1-(5-(5-ethynylthiophene-2-carboxamido)-1-methylpiperidin-3-yl)-2-(2-fluorophenyl)-6-methoxy-N-methyl-1H-benzo[d]imidazole-5-carboxamide] |
| ≥ 7.00 | 5.30 to 6.00 | CNC(=O)c1ccc2c(c1)nc(-c1ccccn1)n2C1CC(NC(=O)c2ccc(Br)s2)CN(C(N)=O)C1 (stereo not shown) [Example 293, 1-(5-(5-bromothiophene-2-carboxamido)-1-carbamoylpiperidin-3-yl)-N-methyl-2-(pyridin-2-yl)-1H-benzo[d]imidazole-5-carboxamide] |
| < 6.00 | < 5.30 | O=C(N[C@H]1CCC[C@@H](n2c(-c3ncccc3F)nc3cnc(N4CCC4)cc32)C1)c1ccc(Br)s1 [Example 300] |

Further lines, the molecule ahead of its results:

| SMILES | pIC50 [1] | pIC50 [2] |
| --- | --- | --- |
| O=C(N[C@H]1CCC[C@@H](n2c(-c3ccccn3)nc3cc(-n4nccn4)ncc32)C1)c1ccc(Br)s1 [Example 151, 5-bromo-N-((1S,3R)-3-(2-(pyridin-2-yl)-6-(2H-1,2,3-triazol-2-yl)-3H-imidazo[4,5-c]pyridin-3-yl)cyclohexyl)thiophene-2-carboxamide] | ≥ 7.00 | < 5.30 |
| C#Cc1ccc(C(=O)N[C@H]2CCC[C@@H](n3c(-c4ccccn4)nc4cc(-c5cnco5)ncc43)C2)s1 [Example 153, 5-ethynyl-N-((1S,3R)-3-(6-(oxazol-5-yl)-2-(pyridin-2-yl)-3H-imidazo[4,5-c]pyridin-3-yl)cyclohexyl)thiophene-2-carboxamide] | 6.30 to 7.00 | < 5.30 |
| Cn1cc(-c2cc3nc(-c4ccccn4)n(C4CCCC(NC(=O)c5ccc(Br)s5)C4)c3cn2)cn1 (stereo not shown) [Example 156, 5-bromo-N-(3-(6-(1-methyl-1H-pyrazol-4-yl)-2-(pyridin-2-yl)-3H-imidazo[4,5-c]pyridin-3-yl)cyclohexyl)thiophene-2-carboxamide] | < 6.00 | < 5.30 |
| CC(C)Cc1nc2cnc(-c3ccccc3F)cc2n1[C@@H]1CCC[C@H](NC(=O)c2ncc(Cl)s2)C1 [Example 206, 5-chloro-N-((1S,3R)-3-(6-(2-fluorophenyl)-2-isobutyl-1H-imidazo[4,5-c]pyridin-1-yl)cyclohexyl)thiazole-2-carboxamide] | 6.30 to 7.00 | < 5.30 |
| O=C(N[C@H]1CCC[C@@H](n2c(-c3ccccc3F)nc3cnc(-c4c(F)cccc4F)cc32)C1)c1ncc(Cl)s1 [Example 207, 5-chloro-N-((1S,3R)-3-(6-(2,6-difluorophenyl)-2-(2-fluorophenyl)-1H-imidazo[4,5-c]pyridin-1-yl)cyclohexyl)thiazole-2-carboxamide] | 6.30 to 7.00 | < 5.30 |
| Cn1ccc(Oc2cc3c(cn2)nc(-c2ncccc2F)n3[C@@H]2CCC[C@H](NC(=O)c3ncc(C(F)F)s3)C2)n1 [Example 268, 5-(difluoromethyl)-N-((1S,3R)-3-(2-(3-fluoropyridin-2-yl)-6-((1-methyl-1H-pyrazol-3-yl)oxy)-1H-imidazo[4,5-c]pyridin-1-yl)cyclohexyl)thiazole-2-carboxamide] | 6.00 to 6.30 | < 5.30 |
| CC(=O)N1CC(NC(=O)c2ccc(Br)s2)CC(n2c(-c3ccccn3)nc3cc(-c4nnco4)ccc32)C1 (stereo not shown) [Example 282, N-(5-(5-(1,3,4-oxadiazol-2-yl)-2-(pyridin-2-yl)-1H-benzo[d]imidazol-1-yl)-1-acetylpiperidin-3-yl)-5-bromothiophene-2-carboxamide] | 6.30 to 7.00 | < 5.30 |
| CC(=O)N1CC(NC(=O)c2ccc(Br)s2)CC(n2c(-c3ccccn3)nc3cc(-c4ncon4)ccc32)C1 (stereo not shown) [Example 284, N-(5-(5-(1,2,4-oxadiazol-3-yl)-2-(pyridin-2-yl)-1H-benzo[d]imidazol-1-yl)-1-acetylpiperidin-3-yl)-5-bromothiophene-2-carboxamide] | ≥ 7.00 | 5.30 to 6.00 |
| CNC(=O)c1cc2nc(-c3ccccn3)n(C3CC(NC(=O)c4ccc(Br)s4)CN(C)C3)c2cc1OC (stereo not shown) [Example 290, 1-(5-(5-bromothiophene-2-carboxamido)-1-methylpiperidin-3-yl)-6-methoxy-N-methyl-2-(pyridin-2-yl)-1H-benzo[d]imidazole-5-carboxamide] | ≥ 7.00 | < 5.30 |
| O=C(N[C@H]1CCC[C@@H](n2c(-c3ccccc3F)nc3cnc(N4CCC4)cc32)C1)c1ccc(Br)s1 [Example 301, N-((1S,3R)-3-(6-(azetidin-1-yl)-2-(2-fluorophenyl)-1H-imidazo[4,5-c]pyridin-1-yl)cyclohexyl)-5-bromothiophene-2-carboxamide] | < 6.00 | < 5.30 |
| CC(C)Cc1nc2cnc(-c3cccc4ccoc34)cc2n1[C@@H]1CCC[C@H](NC(=O)c2ncc(Cl)s2)C1 [Example 327, N-((1S,3R)-3-(6-(benzofuran-7-yl)-2-isobutyl-1H-imidazo[4,5-c]pyridin-1-yl)cyclohexyl)-5-chlorothiazole-2-carboxamide] | 6.30 to 7.00 | 5.30 to 6.00 |
| Cc1nsc(-c2cc3c(cn2)nc(CC(C)C)n3[C@@H]2CCC[C@H](NC(=O)c3ncc(Cl)s3)C2)n1 [Example 336, 5-chloro-N-((1S,3R)-3-(2-isobutyl-6-(3-methyl-1,2,4-thiadiazol-5-yl)-1H-imidazo[4,5-c]pyridin-1-yl)cyclohexyl)thiazole-2-carboxamide] | 6.30 to 7.00 | 5.30 to 6.00 |
